Consider 1 molecule from patent US10829778B2, “Plants having increased tolerance to herbicides” (BASF SE, priority 2013, dated 2020).

In experiment [1] the test system is transgenic Arabidopsis plants expressing HvHPPD L320H, P321A. As to the kind of experiment: Greenhouse herbicide spray test, transgenic Arabidopsis plants (T2). Type of experiment: in vivo, Arabidopsis thaliana. The following applies: for Injury evaluation: P321A, two weeks after treatment. An excerpt:
(§1) For post emergence treatment, the test plants are first grown to a height of 3 to 15 cm, depending on the plant habit, and only then treated with the herbicides. For this purpose, the test plants are either sown directly and grown in the same containers, or they are first grown separately and transplanted into the test containers a few days prior to treatment.
(§2) Additionally, T1 and T2 transgenic Arabidopsis plants can be tested for improved tolerance to N-heterocyclyl-arylcarboxamides in a greenhouse studies. Herbicide injury scoring is done 2-3 weeks after treatment and is rated on a scale of 0 to 100%, 0% being no injury and 100% being complete death.

The subject of experiment [2] is transgenic Arabidopsis plants expressing HvHPPD L320H. Described as above. The class given is in vivo, Arabidopsis thaliana. The following applies: for Injury evaluation: HvHPPD L320H, two weeks after treatment.
Text: as §1, §2

The test system of experiment [3] is transgenic Arabidopsis plants expressing AtHPPD M335Y, P336A, E363Q. The experiment is described as above. Type of experiment: in vivo, Arabidopsis thaliana. The following applies: two weeks after treatment.
Text: as §1, §2

Experiment [4] has as its system transgenic Arabidopsis plants expressing AtHPPD M335H, P336A, E363Q. The description is as above. Type of experiment: in vivo, Arabidopsis thaliana. The following applies: two weeks after treatment.
Text: as §1, §2

The target in experiment [5] is T1, HvHPPD L320Q (SEQ ID: 2) (Hordeum vulgare, UniProt O48604, A164G/L320Q/R146V/R147D/R148G).
T1 construct: His tag (N); made in house; host or cells: E. coli BL21 (DE3)
T1 sequence (O48604 whole entry R146V/R147D/R148G/A164G/L320Q): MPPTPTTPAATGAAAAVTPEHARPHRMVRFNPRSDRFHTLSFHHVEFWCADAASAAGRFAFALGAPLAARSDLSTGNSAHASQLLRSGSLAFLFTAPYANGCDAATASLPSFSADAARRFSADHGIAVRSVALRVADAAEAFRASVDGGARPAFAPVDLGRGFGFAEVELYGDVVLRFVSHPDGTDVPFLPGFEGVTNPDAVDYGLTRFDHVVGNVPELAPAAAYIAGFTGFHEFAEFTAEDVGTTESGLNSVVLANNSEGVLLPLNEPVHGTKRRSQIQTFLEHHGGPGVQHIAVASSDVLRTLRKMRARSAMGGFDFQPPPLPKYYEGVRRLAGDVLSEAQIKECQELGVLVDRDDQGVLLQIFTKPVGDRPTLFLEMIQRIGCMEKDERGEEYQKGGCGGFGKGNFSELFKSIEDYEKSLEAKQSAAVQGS
As to the kind of experiment: HPPD activity assay, mutant enzyme. The following applies: Table 16, normalized to Hordeum wild-type. The class given is biochemical. Here is the method: (§3) HPPD produces homogentisic acid and CO2 from 4-hydroxyphenylpyruvate (4-HPP) and O2. The activity assay for HPPD is based on the analysis of homogentisic acid by reversed phase HPLC.
(§4) The assay mixture can contain 150 mM potassium phosphate buffer pH 7.0, 50 mM L-ascorbic acid, 100 μM Catalase (Sigma-Aldrich), 1 μM FeSO4 and 0.2 units of purified HPPD enzyme in a total volume of 505 μl. 1 unit is defined as the amount of enzyme that is required to produce 1 nmol of HGA per minute at 20° C.
(§5) After a preincubation of 30 min the reaction is started by adding 4-HPP to a final concentration of 0.05 mM. The reaction is allowed to proceed for 45 min at room temperature. The reaction is stopped by the addition of 50 μl of 4.5 M phosphoric acid. The sample is filtered using a […] pore size PVDF filtration device.
(§6) 5 μl of the cleared sample is analyzed on an UPLC HSS T3 column (particle size 1.8 μm, dimensions 2.1×50 mm; Waters) by isocratic elution using 90% 20 mM NaH2PO4 pH 2.2, 10% methanol (v/v).
(§7) HGA is detected electrochemically at 750 mV (mode: DC; polarity: positive) and quantified by integrating peak areas (Empower software; Waters).
(§8) Inhibitors are dissolved in DMSO (dimethylsulfoxide) to a concentration of 0.5 mM. From this stock solution serial five-fold dilutions are prepared in DMSO, which are used in the assay. The respective inhibitor solution accounts for 1% of the assay volume. […] Activities are normalized by setting the uninhibited enzyme activity to 100%. IC50 values are calculated using non-linear regression.
(§9) Purified, mutant HPPD enzymes are obtained by the methods described above. Dose response and kinetic measurements are carried out using the described HPPD activity assay. Apparent michaelis constants (Km) and maximal reaction velocities (Vmax) are calculated by non-linear regression with the software GraphPad Prism 5 (GraphPad Software, La Jolla, USA) using a substrate inhibition model. […] Weighted means (by standard error) of Km and IC50 values are calculated from at least three independent experiments.
(§10) Field performance of the optimized HPPD enzyme, which is used as a herbicide tolerance trait may depend not only on its lack of sensitivity towards HPPD inhibiting herbicides but also on its activity. To assess the potential performance of a herbicide tolerance trait a tolerance index (TI) is calculated using the following formula: […]
(§11) Easy comparison and ranking of each trait is enabled by normalizing tolerance indexes on Arabidopsis or Hordeum wild-type HPPD.

Experiment [6] concerns the target T2, Arabidopsis HPPD (SEQ ID: 53) M335H, P336G (Arabidopsis thaliana, UniProt P93836, M335H/P336G).
T2 construct: PCR-based site directed mutagenesis of pEXP5-NT/TOPO®-AtHPPD; His6 (N); made in house; host or cells: E. coli BL21 (DE3)
As to the kind of experiment: HPPD activity assay, mutant enzyme. The class given is biochemical. The following applies: Table 15, normalized to Arabidopsis wild-type. On the procedure:
as §3, §4, §5, §6, §7, §8, §9, §10, §11

T2 sequence (P93836 whole entry M335H/P336G): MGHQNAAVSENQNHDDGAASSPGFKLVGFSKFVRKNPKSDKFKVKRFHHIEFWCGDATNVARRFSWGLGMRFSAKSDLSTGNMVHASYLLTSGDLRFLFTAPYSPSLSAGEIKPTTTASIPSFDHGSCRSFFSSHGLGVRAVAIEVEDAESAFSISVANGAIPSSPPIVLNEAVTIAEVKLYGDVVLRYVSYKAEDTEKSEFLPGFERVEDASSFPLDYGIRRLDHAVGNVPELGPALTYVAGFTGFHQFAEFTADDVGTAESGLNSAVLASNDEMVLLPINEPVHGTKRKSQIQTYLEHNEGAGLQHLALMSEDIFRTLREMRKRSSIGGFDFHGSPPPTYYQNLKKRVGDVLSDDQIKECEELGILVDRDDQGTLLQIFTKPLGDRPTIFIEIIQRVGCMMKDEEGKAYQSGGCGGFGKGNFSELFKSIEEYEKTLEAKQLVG

For `Cc1nonc1NC(=O)c1ccc(S(C)(=O)=O)c(S(C)(=O)=O)c1C` [Inhibitor 1, 2-methyl-N-(4-methyl-1,2,5-oxadiazol-3-yl)-3,4-bis(methylsulfonyl)benzamide], the “increased tolerance versus wild-type plants” value in experiment [1] (P321A plants, highest dose applied) was 40 fold; in experiment [2] (HvHPPD L320H plants, dose of 3.125 g/ha) it was roughly 20 fold. In addition, the Injury evaluation in experiment [1] (1.56 g/ha) came to 0%; in experiment [1] (3.125 g/ha), 0%; in experiment [1] (6.25 g/ha), 2%; in experiment [1] (12.5 g/ha), 2.5%; in experiment [2] (1.56 g/ha), 0%; in experiment [2] (3.125 g/ha), 5%. For the same molecule, the Injury evaluation in experiment [2] (6.25 g/ha) worked out at 20%; in experiment [2] (12.5 g/ha), 27%; in experiment [3] (1.56 g/ha) it was 12%; in experiment [3] (3.125 g/ha), 23%; in experiment [3] (6.25 g/ha), 58%; in experiment [3] (12.5 g/ha) it was 52%. Also, the Injury evaluation in experiment [4] (1.56 g/ha) is listed as 3%; in experiment [4] (3.125 g/ha), 13%; in experiment [4] (6.25 g/ha) it was 42%; in experiment [4] (12.5 g/ha), 42%. The “Normalized tolerance index TI Inhibitor 1” value in experiment [5] was determined as 1.1; in experiment [6], 3.6.
